Results: patent publication US10280447B2, “Substituted imidazo[1,2-A]pyrazines tethered to energy acceptors” (PROMEGA CORPORATION, priority 2016, dated 2019)

System: NanoLuc® enzyme and NanoLuc-Halotag fusion protein enzyme
Test: Spectral profile of the coelenterazine analogue/luciferase reaction (Tecan-M1000, 3 nm increments)
Type: biochemical, Oplophorus gracilirostris
Details: NanoGlo® buffer
Method: FIGS. 2A-2D show the spectral profiles of varying concentrations of TAK-0043 and enzyme in NanoGlo® buffer. […] TAK-0043 was tested as a potential coelenterazine analogue capable of shifting the emission spectrum in a coelenterazine/luciferase reaction. A dilution series of purified NanoLuc® enzyme (Promega E499a) and NanoLuc-Halotag fusion protein enzyme was prepared in OptiMEM+0.1% FBS starting 2 μM. 50 ul of the 2 μM enzyme dilutions were combined with 50 μl of 2 μM and 20 μM TAK-0043 in NanoGlo® buffer in triplicate. These samples were immediately read on the Tecan-M1000 using 3 nm increments to obtain spectral profiles. Another spectral measurement was completed by combining 50 μl of 6.6 μM NanoLuc® enzyme and NanoLuc-Halotag fusion protein enzyme in OptiMEM+0.1% FBS with 50 μl of 2 μM TAK-0043 in NanoGlo® buffer in triplicate. This sample was also read on the Tecan M-1000 using […] increments.

Compound: O=C(NCCCCCCOc1cccc(Cc2nc3c(Cc4ccccc4)[nH]c(-c4ccccc4)cn-3c2=O)c1)c1ccc(C(=O)O)c(C2=c3cc4c5c(c3Oc3c2cc2c6c3CCCN6CCCC2)CCC[N+]=5CCCC4)c1 [TAK-0043]
- peak for coelenterazine emission at 460 nm (TAK-0043 with NanoLuc® and NanoLuc-HaloTag fusion enzyme): nearly invisible
- emitted photons shifted to NCT dye emission (all concentrations of TAK-0043 (1 or 10 uM) and enzyme (1 or 3.3 uM) used): > 95%
- emission maximum (all concentrations of TAK-0043 and enzyme used): 618 nm
